Active and inactive are the calls of the source. No rule for the calls is given here.
Test system: CCRIS mutagenicity, Ames/micronucleus/aberration tests
Assay: CCRIS mutagenicity studies

Measured: mutagenic call

O=C(O)c1ccccc1
inactive: Test System: AMES SALMONELLA TYPHIMURIUM, Strain/Indicator: TA97, Metabolic Activation: HAMSTER, LIVER, S-9, AROCLOR 1254 (10 OR 30%), Method: PREINCUBATION inactive; negative | Test System: AMES SALMONELLA TYPHIMURIUM, Strain/Indicator: TA97, Metabolic Activation: NONE, Method: PREINCUBATION inactive; negative | Test System: AMES SALMONELLA TYPHIMURIUM, Strain/Indicator: TA97, Metabolic Activation: RAT, LIVER, S-9, AROCLOR 1254, Method: PREINCUBATION inactive; negative | Test System: AMES SALMONELLA TYPHIMURIUM, Strain/Indicator: TA97, Metabolic Activation: RAT,LIVER, S-9, AROCLOR 1254 (10 OR 30%), Method: PREINCUBATION inactive; negative | Test System: AMES SALMONELLA TYPHIMURIUM, Strain/Indicator: TA97A, Metabolic Activation: NONE, Method: PREINCUBATION inactive; negative | Test System: AMES SALMONELLA TYPHIMURIUM, Strain/Indicator: TA97A, Metabolic Activation: RAT, LIVER, S-9, AROCLOR 1254, Method: PREINCUBATION inactive; negative | Test System: AMES SALMONELLA TYPHIMURIUM, Strain/Indicator: TA98, Metabolic Activation: GUINEA PIG, LIVER, S-9, PCB, Method: PREINCUBATION inactive; negative | Test System: AMES SALMONELLA TYPHIMURIUM, Strain/Indicator: TA98, Metabolic Activation: HAMSTER, LIVER, S-9, AROCLOR 1254 (10 OR 30%), Method: PREINCUBATION inactive; negative | Test System: AMES SALMONELLA TYPHIMURIUM, Strain/Indicator: TA98, Metabolic Activation: HAMSTER, LIVER, S-9, PCB, Method: PREINCUBATION inactive; negative | Test System: AMES SALMONELLA TYPHIMURIUM, Strain/Indicator: TA98, Metabolic Activation: MOUSE, LIVER, S-9, PCB, Method: PREINCUBATION inactive; negative | Test System: AMES SALMONELLA TYPHIMURIUM, Strain/Indicator: TA98, Metabolic Activation: NONE, Method: PREINCUBATION inactive; negative | Test System: AMES SALMONELLA TYPHIMURIUM, Strain/Indicator: TA98, Metabolic Activation: NONE, Method: STANDARD PLATE inactive; negative | Test System: AMES SALMONELLA TYPHIMURIUM, Strain/Indicator: TA98, Metabolic Activation: RAT, LIVER, S-9, AROCLOR 1254 (10%), Method: PREINCUBATION inactive; negative | Test System: AMES SALMONELLA TYPHIMURIUM, Strain/Indicator: TA98, Metabolic Activation: RAT, LIVER, S-9, AROCLOR 1254 (30%), Method: PREINCUBATION inactive; negative | Test System: AMES SALMONELLA TYPHIMURIUM, Strain/Indicator: TA98, Metabolic Activation: RAT, LIVER, S-9, AROCLOR 1254, Method: STANDARD PLATE inactive; negative | Test System: AMES SALMONELLA TYPHIMURIUM, Strain/Indicator: TA98, Metabolic Activation: RAT, LIVER, S-9, PCB, Method: PREINCUBATION inactive; negative | Test System: AMES SALMONELLA TYPHIMURIUM, Strain/Indicator: TA100, Metabolic Activation: GUINEA PIG, LIVER, S-9, PCB, Method: PREINCUBATION inactive; negative | Test System: AMES SALMONELLA TYPHIMURIUM, Strain/Indicator: TA100, Metabolic Activation: HAMSTER, LIVER, S-9, AROCLOR 1254 (10 OR 30%), Method: PREINCUBATION inactive; negative | Test System: AMES SALMONELLA TYPHIMURIUM, Strain/Indicator: TA100, Metabolic Activation: HAMSTER, LIVER, S-9, PCB, Method: PREINCUBATION inactive; negative | Test System: AMES SALMONELLA TYPHIMURIUM, Strain/Indicator: TA100, Metabolic Activation: MOUSE, LIVER, S-9, PCB, Method: PREINCUBATION inactive; negative | Test System: AMES SALMONELLA TYPHIMURIUM, Strain/Indicator: TA100, Metabolic Activation: NONE, Method: PREINCUBATION inactive; negative | Test System: AMES SALMONELLA TYPHIMURIUM, Strain/Indicator: TA100, Metabolic Activation: NONE, Method: STANDARD PLATE inactive; negative | Test System: AMES SALMONELLA TYPHIMURIUM, Strain/Indicator: TA100, Metabolic Activation: RAT, LIVER, S-9, AROCLOR 1254 (10 OR 30%), Method: PREINCUBATION inactive; negative | Test System: AMES SALMONELLA TYPHIMURIUM, Strain/Indicator: TA100, Metabolic Activation: RAT, LIVER, S-9, AROCLOR 1254, Method: STANDARD PLATE inactive; negative | Test System: AMES SALMONELLA TYPHIMURIUM, Strain/Indicator: TA100, Metabolic Activation: RAT, LIVER, S-9, PCB, Method: PREINCUBATION inactive; negative | Test System: AMES SALMONELLA TYPHIMURIUM, Strain/Indicator: TA102, Metabolic Activation: NONE, Method: PREINCUBATION inactive; negative | Test System: AMES SALMONELLA TYPHIMURIUM, Strain/Indicator: TA102, Metabolic Activation: RAT, LIVER, S-9, AROCLOR 1254, Method: PREINCUBATION inactive; negative | Test System: AMES SALMONELLA TYPHIMURIUM, Strain/Indicator: TA1535, Metabolic Activation: HAMSTER, LIVER, S-9, AROCLOR 1254 (10 OR 30%), Method: PREINCUBATION inactive; negative | Test System: AMES SALMONELLA TYPHIMURIUM, Strain/Indicator: TA1535, Metabolic Activation: NONE, Method: PREINCUBATION inactive; negative | Test System: AMES SALMONELLA TYPHIMURIUM, Strain/Indicator: TA1535, Metabolic Activation: NONE, Method: STANDARD PLATE inactive; negative | Test System: AMES SALMONELLA TYPHIMURIUM, Strain/Indicator: TA1535, Metabolic Activation: RAT, LIVER, S-9, AROCLOR 1254 (10%), Method: PREINCUBATION inactive; negative | Test System: AMES SALMONELLA TYPHIMURIUM, Strain/Indicator: TA1535, Metabolic Activation: RAT, LIVER, S-9, AROCLOR 1254 (30%), Method: PREINCUBATION inactive; negative | Test System: AMES SALMONELLA TYPHIMURIUM, Strain/Indicator: TA1535, Metabolic Activation: RAT, LIVER, S-9, AROCLOR 1254, Method: STANDARD PLATE inactive; negative | Test System: AMES SALMONELLA TYPHIMURIUM, Strain/Indicator: TA1537, Metabolic Activation: HAMSTER, LIVER, S-9, AROCLOR 1254 (10 OR 30%), Method: PREINCUBATION inactive; negative | Test System: AMES SALMONELLA TYPHIMURIUM, Strain/Indicator: TA1537, Metabolic Activation: NONE, Method: PREINCUBATION inactive; negative | Test System: AMES SALMONELLA TYPHIMURIUM, Strain/Indicator: TA1537, Metabolic Activation: NONE, Method: STANDARD PLATE inactive; negative | Test System: AMES SALMONELLA TYPHIMURIUM, Strain/Indicator: TA1537, Metabolic Activation: RAT, LIVER, S-9, AROCLOR 1254 (10%), Method: PREINCUBATION inactive; negative | Test System: AMES SALMONELLA TYPHIMURIUM, Strain/Indicator: TA1537, Metabolic Activation: RAT, LIVER, S-9, AROCLOR 1254 (30%), Method: PREINCUBATION inactive; negative | Test System: AMES SALMONELLA TYPHIMURIUM, Strain/Indicator: TA1537, Metabolic Activation: RAT, LIVER, S-9, AROCLOR 1254, Method: STANDARD PLATE inactive; negative | Test System: AMES SALMONELLA TYPHIMURIUM, Strain/Indicator: TA1538, Metabolic Activation: NONE, Method: STANDARD PLATE inactive; negative | Test System: AMES SALMONELLA TYPHIMURIUM, Strain/Indicator: TA1538, Metabolic Activation: RAT, LIVER, S-9, AROCLOR 1254, Method: STANDARD PLATE inactive; negative | Test System: Ames Salmonella typhimurium, Strain/Indicator: TA98, Metabolic Activation: None, Method: Direct plate incorporation inactive; negative | Test System: Ames Salmonella typhimurium, Strain/Indicator: TA98, Metabolic Activation: Rat, liver, S-9, Aroclor 1254, Method: Direct plate incorporation inactive; negative | Test System: Ames Salmonella typhimurium, Strain/Indicator: TA100, Metabolic Activation: None, Method: Direct plate incorporation inactive; negative | Test System: Ames Salmonella typhimurium, Strain/Indicator: TA100, Metabolic Activation: Rat, liver, S-9, Aroclor 1254, Method: Direct plate incorporation inactive; negative | Test System: E. COLI, Strain/Indicator: WP2, Metabolic Activation: NONE, Method: STANDARD PLATE inactive; negative | Test System: E. COLI, Strain/Indicator: WP2, Metabolic Activation: RAT, LIVER, S-9, AROCLOR 1254, Method: STANDARD PLATE inactive; negative
